Test results: ChEMBL document CHEMBL3885861, “Open TG-GATES”

Organism: Rattus norvegicus
Test: Open TG-GATES - Regimen: Single
Format: toxicity, organism-based, Sprague-Dawley
Set-up: regimen Single, gender Male, age 6 weeks
Settings: in vivo, po, 0 mg/kg, route gavage, dose level Control; for APTT / Bas / Eos / Fbg / Hb / Ht / Lym / MCH / MCHC / MCV / Mono / Neu / PT / Plat / RBC / Ret / WBC: tissue Blood; for KIDNEY_L / KIDNEY_R / KIDNEY_TOTAL: tissue Kidney; for LIVER: tissue Liver; for ALP / ALT / AST / BUN / CRE / DBIL / GLC / K / Na / PL / RALB / TBIL / TC / TG / TP / gamma-GTP: tissue Plasma

`CN1C(=O)CN=C(c2ccccc2)c2cc(Cl)ccc21` [DIAZEPAM] gave a TERMINAL_BW (3 h) of 214.4 g, an APTT (3 h) of 15.9 s and a Bas (3 h) of 0%. The Eos (3 h) was 1%, the Fbg (3 h) was 213.4 mg/dL and the Hb (3 h) was 13.5 g/dL. The Ht (3 h) was 40.5%, the Lym (3 h) was 71.2% and the MCH (3 h) was 22.3 pg. It also gave an MCHC (3 h) of 33.3%, an MCV (3 h) of 66.9 fL and a Mono (3 h) of 8.6%. The Neu (3 h) was 19.6%, the PT (3 h) was 12.4 s and the Plat (3 h) was 101 x10_4/uL. For the same molecule, the RBC (3 h) was 606 x10_4/ul, the Ret (3 h) was 8.2% and the WBC (3 h) was 109.8 x10_2/uL. The KIDNEY_L (3 h) was 1 g, the KIDNEY_R (3 h) was 1 g and the KIDNEY_TOTAL (3 h) was 2 g. The LIVER (3 h) was 10.2 g, the ALP (3 h) was 836.4 IU/L and the ALT (3 h) was 31.8 IU/L. It also gave an AST (3 h) of 66.6 IU/L, a BUN (3 h) of 14.2 mg/dL and a CRE (3 h) of 0.5 mg/dL. It also gave a DBIL (3 h) of 0.028 mg/dL, a GLC (3 h) of 187.4 mg/dL and a K (3 h) of 5.2 meq/L. The Na (3 h) was 138.8 meq/L, the PL (3 h) was 131.6 mg/dL and the RALB (3 h) was 3.7 g/dL. For the same molecule, the TBIL (3 h) was 0.4 mg/dL, the TC (3 h) was 71 mg/dL and the TG (3 h) was 52.2 mg/dL. It also gave a TP (3 h) of 5.5 g/dL, a gamma-GTP (3 h) of 1.8 IU/L and a TERMINAL_BW (6 h) of 213 g. It also gave an APTT (6 h) of 16.6 s, a Bas (6 h) of 0% and an Eos (6 h) of 0.6%. The Fbg (6 h) was 216 mg/dL, the Hb (6 h) was 13.8 g/dL and the Ht (6 h) was 41.8%. For the same molecule, the Lym (6 h) was 77.2%, the MCH (6 h) was 21.4 pg and the MCHC (6 h) was 33.1%. It also gave an MCV (6 h) of 64.6 fL, a Mono (6 h) of 6.4% and a Neu (6 h) of 15.8%. For the same molecule, the PT (6 h) was 12.6 s, the Plat (6 h) was 106.4 x10_4/uL and the RBC (6 h) was 647 x10_4/ul. It also gave a Ret (6 h) of 8.5%, a WBC (6 h) of 105.2 x10_2/uL and a KIDNEY_L (6 h) of 1 g. The KIDNEY_R (6 h) was 1 g, the KIDNEY_TOTAL (6 h) was 2 g and the LIVER (6 h) was 9.6 g. The ALP (6 h) was 878 IU/L, the ALT (6 h) was 29.6 IU/L and the AST (6 h) was 60 IU/L. The BUN (6 h) was 9.8 mg/dL, the CRE (6 h) was 0.5 mg/dL and the DBIL (6 h) was 0.016 mg/dL. For the same molecule, the GLC (6 h) was 203 mg/dL, the K (6 h) was 4.9 meq/L and the Na (6 h) was 138.6 meq/L. It also gave a PL (6 h) of 140 mg/dL, an RALB (6 h) of 3.7 g/dL and a TBIL (6 h) of 0.3 mg/dL. It also gave a TC (6 h) of 74.8 mg/dL, a TG (6 h) of 84.2 mg/dL and a TP (6 h) of 5.6 g/dL. It also gave a gamma-GTP (6 h) of 1.2 IU/L, a TERMINAL_BW (9 h) of 212.8 g and an APTT (9 h) of 15.7 s. The Bas (9 h) was 0%, the Eos (9 h) was 0.8% and the Fbg (9 h) was 215.4 mg/dL. For the same molecule, the Hb (9 h) was 13.6 g/dL, the Ht (9 h) was 41.5% and the Lym (9 h) was 79.2%. It also gave an MCH (9 h) of 21.7 pg, an MCHC (9 h) of 32.8% and an MCV (9 h) of 66 fL. It also gave a Mono (9 h) of 5.6%, a Neu (9 h) of 14.4% and a PT (9 h) of 12.7 s. For the same molecule, the Plat (9 h) was 101.7 x10_4/uL, the RBC (9 h) was 628.4 x10_4/ul and the Ret (9 h) was 8.2%. For the same molecule, the WBC (9 h) was 117.7 x10_2/uL, the KIDNEY_L (9 h) was 1 g and the KIDNEY_R (9 h) was 1 g. For the same molecule, the KIDNEY_TOTAL (9 h) was 2 g, the LIVER (9 h) was 9 g and the ALP (9 h) was 712.4 IU/L. It also gave an ALT (9 h) of 29 IU/L, an AST (9 h) of 59.8 IU/L and a BUN (9 h) of 10.6 mg/dL. It also gave a CRE (9 h) of 0.6 mg/dL, a DBIL (9 h) of 0.038 mg/dL and a GLC (9 h) of 204 mg/dL. It also gave a K (9 h) of 4.8 meq/L, a Na (9 h) of 138.6 meq/L and a PL (9 h) of 130.4 mg/dL. For the same molecule, the RALB (9 h) was 3.7 g/dL, the TBIL (9 h) was 0.4 mg/dL and the TC (9 h) was 75 mg/dL. The TG (9 h) was 41.6 mg/dL, the TP (9 h) was 5.5 g/dL and the gamma-GTP (9 h) was 1.8 IU/L. For the same molecule, the TERMINAL_BW (24 h) was 227.4 g, the APTT (24 h) was 16.7 s and the Bas (24 h) was 0%. For the same molecule, the Eos (24 h) was 1%, the Fbg (24 h) was 210.2 mg/dL and the Hb (24 h) was 13.7 g/dL. For the same molecule, the Ht (24 h) was 41%, the Lym (24 h) was 81.6% and the MCH (24 h) was 21.9 pg. For the same molecule, the MCHC (24 h) was 33.4%, the MCV (24 h) was 65.8 fL and the Mono (24 h) was 5.8%. It also gave a Neu (24 h) of 12.2%, a PT (24 h) of 12.2 s and a Plat (24 h) of 108.9 x10_4/uL. The RBC (24 h) was 624.2 x10_4/ul, the Ret (24 h) was 7.7% and the WBC (24 h) was 114.5 x10_2/uL. It also gave a KIDNEY_L (24 h) of 1.1 g, a KIDNEY_R (24 h) of 1 g and a KIDNEY_TOTAL (24 h) of 2.1 g. It also gave an LIVER (24 h) of 11.2 g, an ALP (24 h) of 817.8 IU/L and an ALT (24 h) of 33.4 IU/L. For the same molecule, the AST (24 h) was 58.4 IU/L, the BUN (24 h) was 15.2 mg/dL and the CRE (24 h) was 0.5 mg/dL. It also gave a DBIL (24 h) of 0.006 mg/dL, a GLC (24 h) of 191.2 mg/dL and a K (24 h) of 5.1 meq/L. For the same molecule, the Na (24 h) was 138.6 meq/L, the PL (24 h) was 131.8 mg/dL and the RALB (24 h) was 3.9 g/dL. It also gave a TBIL (24 h) of 0.3 mg/dL, a TC (24 h) of 63.2 mg/dL and a TG (24 h) of 112.8 mg/dL. It also gave a TP (24 h) of 5.8 g/dL and a gamma-GTP (24 h) of 1 IU/L.
